Reference: the NIST ThermoML archive (doi:10.1021/je8006088)
± gives the expanded uncertainty stated by the source.

Conditions: Crystal; visual observation

SMILES: CC(C)=CCC[C@@H](C)[C@H]1CC[C@H]2[C@@H]3CC=C4C[C@@H](O)CC[C@]4(C)[C@H]3CC[C@]12C [desmosterol]
- Normal melting temperature: 120.6 ± 1.1 °C
